Earlier results on one compound are cited in patent publication US8202858B2, “Vasopressin V1a antagonists” (priority 2004, dated 2012).

This data set addresses T1, V1a vasopressin receptor (Homo sapiens, UniProt P37288).
T1 construct: host or cells: patients (clinical study)
Conditions: patients with dysmenorrhoea, compared to placebo.

T1 sequence (P37288 whole entry): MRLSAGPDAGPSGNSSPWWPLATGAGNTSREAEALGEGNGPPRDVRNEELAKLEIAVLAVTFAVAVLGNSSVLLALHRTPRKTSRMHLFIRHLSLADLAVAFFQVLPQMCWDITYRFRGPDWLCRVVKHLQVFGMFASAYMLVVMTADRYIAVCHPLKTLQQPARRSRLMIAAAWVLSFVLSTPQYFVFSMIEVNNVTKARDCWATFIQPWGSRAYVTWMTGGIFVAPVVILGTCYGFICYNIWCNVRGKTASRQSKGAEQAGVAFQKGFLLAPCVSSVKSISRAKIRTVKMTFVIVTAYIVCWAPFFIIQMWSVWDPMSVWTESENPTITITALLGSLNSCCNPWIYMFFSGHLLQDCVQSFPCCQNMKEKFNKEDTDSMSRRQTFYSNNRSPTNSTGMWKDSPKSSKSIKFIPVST

Regarding `COc1ccc(S(=O)(=O)N2c3ccc(Cl)cc3[C@](O)(c3ccccc3Cl)[C@@H]2C(=O)N2CCC[C@H]2C(N)=O)cc1OC` [SR49059], the “amount of additional pain-killer taken” value is “dose-related decrease in the amount of additional pain-killer taken” and the pain entry is recorded as “dose-related decrease in pain”.
